Assay results published in ChEMBL document CHEMBL3885881, “DrugMatrix”.

Species on record: Rattus norvegicus
Test: DrugMatrix - Regimen: Daily Repeat
Assay type: toxicity, organism-based, Sprague-Dawley
Design: regimen Daily Repeat, gender Male, age 6-8 weeks
Settings: in vivo, po, route oral GAVAGE, vehicle .5 % CMC; for ABSOLUTE BASOPHIL / ABSOLUTE EOSINOPHIL / ABSOLUTE LYMPHOCYTE / ABSOLUTE MONOCYTE / ABSOLUTE SEGMENTED NEUTROPHIL / BASOPHIL / EOSINOPHIL / ERYTHROCYTE COUNT / HEMATOCRIT / HEMOGLOBIN / LEUKOCYTE COUNT / LYMPHOCYTE / MEAN CORPUSCULAR HEMOGLOBIN / MEAN CORPUSCULAR HEMOGLOBIN CONCENTRATION / MEAN CORPUSCULAR VOLUME / MONOCYTE / NEUTROPHIL / NUCLEATED RED BLOOD CELLS / PLATELET COUNT: tissue Blood; for ALANINE AMINOTRANSFERASE / ALBUMIN / ALKALINE PHOSPHATASE / ASPARTATE AMINOTRANSFERASE / BLOOD UREA NITROGEN / CARBON DIOXIDE / CHLORIDE / CHOLESTEROL / CREATINE PHOSPHOKINASE / CREATININE / GLUCOSE / LACTATE DEHYDROGENASE / LIPASE / PHOSPHORUS / POTASSIUM / SODIUM / TOTAL BILIRUBIN / TOTAL PROTEIN / URIC ACID: tissue Plasma
[1] = 0 mg/kg, 72 h, dose level Control, time 3 day
[2] = 0 mg/kg, 120 h, dose level Control, time 5 day
[3] = 40 mg/kg, 72 h, dose level Low, time 3 day

C[C@@](Cc1ccc(O)c(O)c1)(NN)C(=O)O.O [CARBIDOPA]
ABSOLUTE BASOPHIL [1]: 0 CELLS/uL
ABSOLUTE EOSINOPHIL [1]: 222.83 CELLS/uL
ABSOLUTE LYMPHOCYTE [1]: 14453 CELLS/uL
ABSOLUTE MONOCYTE [1]: 0 CELLS/uL
ABSOLUTE SEGMENTED NEUTROPHIL [1]: 1490.83 CELLS/uL
BASOPHIL [1]: 0%
EOSINOPHIL [1]: 1.33%
ERYTHROCYTE COUNT [1]: 5.76 x10E6/uL
HEMATOCRIT [1]: 36.52%
HEMOGLOBIN [1]: 13.45 G/DL
LEUKOCYTE COUNT [1]: 16.17 x10E3/uL
LYMPHOCYTE [1]: 89.33%
MEAN CORPUSCULAR HEMOGLOBIN [1]: 23.37 pg
MEAN CORPUSCULAR HEMOGLOBIN CONCENTRATION [1]: 36.85 G/DL
MEAN CORPUSCULAR VOLUME [1]: 63.47 fL
MONOCYTE [1]: 0%
NEUTROPHIL [1]: 9.33%
NUCLEATED RED BLOOD CELLS [1]: 0 /100WBC
PLATELET COUNT [1]: 1239.5 x10E3/uL
ALANINE AMINOTRANSFERASE [1]: 43.83 u/L
ALBUMIN [1]: 4.27 G/DL
ALKALINE PHOSPHATASE [1]: 398.83 u/L
ASPARTATE AMINOTRANSFERASE [1]: 81.17 u/L
BLOOD UREA NITROGEN [1]: 17.67 mg/dL
CARBON DIOXIDE [1]: 27.5 mmol/L
CHLORIDE [1]: 99.17 MEQ/L
CHOLESTEROL [1]: 74 mg/dL
CREATINE PHOSPHOKINASE [1]: 331.5 u/L
CREATININE [1]: 0.2 mg/dL
GLUCOSE [1]: 171.33 mg/dL
LACTATE DEHYDROGENASE [1]: 241.67 u/L
LIPASE [1]: 9.5 u/L
PHOSPHORUS [1]: 12.25 mg/dL
POTASSIUM [1]: 6.33 MEQ/L
SODIUM [1]: 141.28 MEQ/L
TOTAL BILIRUBIN [1]: 0.15 mg/dL
TOTAL PROTEIN [1]: 5.98 G/DL
URIC ACID [1]: 1.63 mg/dL
ABSOLUTE BASOPHIL [2]: 0 CELLS/uL
ABSOLUTE EOSINOPHIL [2]: 148.67 CELLS/uL
ABSOLUTE LYMPHOCYTE [2]: 16020.5 CELLS/uL
ABSOLUTE MONOCYTE [2]: 29.17 CELLS/uL
ABSOLUTE SEGMENTED NEUTROPHIL [2]: 1468.33 CELLS/uL
BASOPHIL [2]: 0%
EOSINOPHIL [2]: 1%
ERYTHROCYTE COUNT [2]: 5.78 x10E6/uL
HEMATOCRIT [2]: 35.77%
HEMOGLOBIN [2]: 13.4 G/DL
LEUKOCYTE COUNT [2]: 17.67 x10E3/uL
LYMPHOCYTE [2]: 90.5%
MEAN CORPUSCULAR HEMOGLOBIN [2]: 23.22 pg
MEAN CORPUSCULAR HEMOGLOBIN CONCENTRATION [2]: 37.47 G/DL
MEAN CORPUSCULAR VOLUME [2]: 61.92 fL
MONOCYTE [2]: 0.17%
NEUTROPHIL [2]: 8.33%
NUCLEATED RED BLOOD CELLS [2]: 0.17 /100WBC
PLATELET COUNT [2]: 1255.5 x10E3/uL
ALANINE AMINOTRANSFERASE [2]: 46.5 u/L
ALBUMIN [2]: 4.38 G/DL
ALKALINE PHOSPHATASE [2]: 336 u/L
ASPARTATE AMINOTRANSFERASE [2]: 76.5 u/L
BLOOD UREA NITROGEN [2]: 20 mg/dL
CARBON DIOXIDE [2]: 27.5 mmol/L
CHLORIDE [2]: 101 MEQ/L
CHOLESTEROL [2]: 71.33 mg/dL
CREATINE PHOSPHOKINASE [2]: 231.83 u/L
CREATININE [2]: 0.37 mg/dL
GLUCOSE [2]: 168.83 mg/dL
LACTATE DEHYDROGENASE [2]: 174 u/L
LIPASE [2]: 8.67 u/L
PHOSPHORUS [2]: 11.48 mg/dL
POTASSIUM [2]: 6.82 MEQ/L
SODIUM [2]: 143.8 MEQ/L
TOTAL BILIRUBIN [2]: 0.2 mg/dL
TOTAL PROTEIN [2]: 5.98 G/DL
URIC ACID [2]: 1.83 mg/dL
ABSOLUTE BASOPHIL [3]: 0 CELLS/uL
ABSOLUTE EOSINOPHIL [3]: 143.67 CELLS/uL
ABSOLUTE LYMPHOCYTE [3]: 13232.67 CELLS/uL
ABSOLUTE MONOCYTE [3]: 0 CELLS/uL
ABSOLUTE SEGMENTED NEUTROPHIL [3]: 1090.33 CELLS/uL
BASOPHIL [3]: 0%
EOSINOPHIL [3]: 1%
ERYTHROCYTE COUNT [3]: 5.57 x10E6/uL
HEMATOCRIT [3]: 35.7%
HEMOGLOBIN [3]: 13.3 G/DL
LEUKOCYTE COUNT [3]: 14.47 x10E3/uL
LYMPHOCYTE [3]: 91.67%
MEAN CORPUSCULAR HEMOGLOBIN [3]: 23.87 pg
MEAN CORPUSCULAR HEMOGLOBIN CONCENTRATION [3]: 37.27 G/DL
MEAN CORPUSCULAR VOLUME [3]: 64.03 fL
MONOCYTE [3]: 0%
NEUTROPHIL [3]: 7.33%
NUCLEATED RED BLOOD CELLS [3]: 0 /100WBC
PLATELET COUNT [3]: 1331.33 x10E3/uL
ALANINE AMINOTRANSFERASE [3]: 40.33 u/L
ALBUMIN [3]: 4.27 G/DL
ALKALINE PHOSPHATASE [3]: 388.33 u/L
ASPARTATE AMINOTRANSFERASE [3]: 77 u/L
BLOOD UREA NITROGEN [3]: 14 mg/dL
CARBON DIOXIDE [3]: 29 mmol/L
CHLORIDE [3]: 100.67 MEQ/L
CHOLESTEROL [3]: 72.33 mg/dL
CREATINE PHOSPHOKINASE [3]: 210.67 u/L
CREATININE [3]: 0.21 mg/dL
GLUCOSE [3]: 156 mg/dL
LACTATE DEHYDROGENASE [3]: 151.33 u/L
LIPASE [3]: 8.33 u/L
PHOSPHORUS [3]: 12.9 mg/dL
POTASSIUM [3]: 6.71 MEQ/L
SODIUM [3]: 144.3 MEQ/L
TOTAL BILIRUBIN [3]: 0.23 mg/dL
TOTAL PROTEIN [3]: 5.9 G/DL
URIC ACID [3]: 1.83 mg/dL
